Like-named read-outs stand apart in the source and are kept apart here.

Series [1] deals with platelet adhesiveness in human blood. Briefly: Morris retention test, inhibition of platelet adhesiveness. Type of series: cell-based. Conditions: 10 min; for inhibition at 10 µM: 10 μ mols/liter, 10 minutes at 37°C, glass beads. How it is done: 2. Determination of inhibiting effect on platelet adhesiveness in human blood by the so-called retention test according to Morris (E. Deutsch, E. Gerlach and K. Moser: 1. Internationales Symposium uber Stoffwechsel und Membranpermeabilitat von Erythrozyten and Thrombozyten, Vienna, 1969; Georg Thieme Verlag, Stuttgart, Germany).
To determine the inhibiting action of the test compound on thrombocyte aggregation, 1 ml of human blood was pipetted into each of a plurality of small test tubes, and the test compound was added to give a final concentration of 5 × 10^-^5 mol/liter or 1 × 10^^-5 mol/liter. The tubes were incubated for 10 minutes at 37°C. 1 gm of glass beads (for gas-chromatography) was added to half of the tubes. Then, the stoppered tubes were attached to a disc mounted for rotation about a horizontal axis and rotated for 1 minute. By this means good contact was obtained between the glass beads and the blood. The tubes were then left standing at room temperature for another hour, after which time a satisfactory sedimentation of erythrocytes had taken place. 0.01 ml of the supernatant plasma was removed, diluted 1:8000 with celloscope solution, and the platelet count was read in a celloscope. The percentage reduction of the stickiness due to the presence of the test compound, compared to the tubes containing no glass beads, was measured (average values of 4- 6 tests).

Series [2] in a line: Acute toxicity (LD50) in mice. The settings on record: mouse, in vivo, observation time 14 days. How it is done: The acute toxicity of the test compounds was determined in mice (observation time: 14 days). The LD50 was calculated from the percentage of animals which died within the observation time after administration, i.v. or p.o., of varying doses [see J. Pharmacol. exper. Therap. 96, 99 (1949)].

Series [3] has as its system platelet aggregation in human blood plasma. The series is described as follows: Born and Cross test, ADP-induced platelet aggregation. Type of series: cell-based. The settings on record: 10 min, human platelet-rich plasma, 10 minutes at 37°C, read-out: Born and Cross test (ADP) EC50 (concentration which causes a 50% alteration of the "optical density"). As for the experimental part:
1. Determination of inhibiting effect upon platelet aggregation in human blood plasma by the method of Born and cross, J. Physiol. 170, 397 (1964):
The platelet aggregation was measured in the platelet-rich plasma of normal, healthy human donors. The rate of decline of the optical density of the platelet suspension was measured and recorded photometrically after the addition of adenosine diphosphate (ADP). From the angle of inclination of the density curve, the speed of aggregation was concluded. The optical density was taken as the point on the curve where most light was transmitted. The smallest possible doses of ADP were chosen, but enough to result in irreversible aggregation. The plasma was incubated at 37°C for 10 minutes with varying quantities of the test compound before ADP was added.

The nature of series [4]: Hygroscopicity remark on acid addition salt. Type of series: physicochemical. Conditions: printed beside m.p. of the salt.

`Cc1nc(N2CCNCC2)nc(N2CC[S+]([O-])CC2)c1[N+](=O)[O-]` [A, 6-methyl-5-nitro-2-piperazino-4-(1-oxido-thiomorpholino)-pyrimidine] returned an inhibition at 10 µM in series [1] of 92%. Further, the LD50 at 336 h in series [2] (iv, read-out: LD50 i.v.) came out at 160 mg/kg; in series [2] (po, read-out: LD50 p.o.), 600 mg/kg. Further, the IC50 in series [3] came to 12 nM.
For `Cc1nc(N2CCNCC2)nc(N2CCSCC2)c1[N+](=O)[O-]` [B, 6-methyl-5-nitro-2-piperazino-4-thiomorpholino-pyrimidine], in that order: 66%, 70 mg/kg, 620 mg/kg and 3000 nM.
For `N#Cc1nc(N2CCNCC2)nc(N2CC[S+]([O-])CC2)c1Cl` [C, 5-chloro-6-cyano-2-piperazino-4-(1-oxido-thiomorpholino)-pyrimidine], in that order: 92%, 101 mg/kg, 836 mg/kg and 130 nM.
For `CCOc1nc(N2CCNCC2)nc(N2CC[S+]([O-])CC2)c1[N+](=O)[O-]` [D, 6-ethoxy-5-nitro-4-(1-oxido-thiomorpholino)-2-piperazino-pyrimidine], in that order: 100%, 150 mg/kg, 600 mg/kg and 25 nM.
`CC(C)Oc1nc(N2CCNCC2)nc(N2CC[S+]([O-])CC2)c1[N+](=O)[O-]` [E, 5-nitro-4-(1-oxido-thiomorpholino)-2-piperazino-6-isopropoxy-pyrimidine] yielded an inhibition at 10 µM in series [1] of 69%. The LD50 at 336 h amounted to 170 mg/kg in series [2] (iv, read-out: LD50 i.v.) and 500 mg/kg in series [2] (po, read-out: LD50 p.o.). The IC50 in series [3] was determined as 200 nM.
`CCC(C)Oc1nc(N2CCNCC2)nc(N2CCS(=O)(=O)CC2)c1[N+](=O)[O-]` (stereo not shown) [F, 6-sec.Butoxy-4-(1,1-dioxido-thiomorpholino)-5-nitro-2-piperazino-pyrimidine] came in with an inhibition at 10 µM in series [1] of 61%. The LD50 at 336 h in series [2] (iv, read-out: LD50 i.v.) came to 150 mg/kg; in series [2] (po, read-out: LD50 p.o.) it was 1500 mg/kg. Also, the IC50 in series [3] is 850 nM.
As to `CCOc1nc(N2CCNCC2)nc(N2CC[S+]([O-])CC2)c1[N+](=O)[O-]` [Fumarate, 6-Ethoxy-5-nitro-4-(1-oxido-thiomorpholino)-2-piperazino-pyrimidine], the hygroscopicity result in series [4] is on record as “hydroscopic”.
`CSc1nc(N2CCN(C=O)CC2)nc(N2CC[S+]([O-])CC2)c1[N+](=O)[O-]` [G, 6-methylthio-5-nitro-4-(1-oxido-thiomorpholino)-2-(N'-formyl-piperazino)-pyrimidine] gave an inhibition at 10 µM in series [1] of 2%. Besides, the LD50 at 336 h in series [2] (po, read-out: LD50 p.o.) is greater than 1000 mg/kg. Further, the IC50 in series [3] turned out to be 50000 nM.
In series [1] (Concentration: 30μ mols/liter (footnote +)), `CC(=O)CC(=O)N1CCN(c2nc(C)c([N+](=O)[O-])c(N3CC[S+]([O-])CC3)n2)CC1` [H, 6-methyl-5-nitro-4-(1-oxido-thiomorpholino)-2-(N'-acetoacetyl-piperazino)-pyrimidine] returned an inhibition at 30 µM of 11%. In series [2] (po, read-out: LD50 p.o.), the LD50 at 336 h is greater than 1000 mg/kg. The IC50 in series [3] turned out to be 100000 nM.

(Values after patent publication US3975384A, “2,4,5,6-Tetrasubstituted pyrimidines and salts thereof” (Boehringer Ingelheim GmbH, priority 1973, dated 1976).)
